Measured values from ChEMBL document CHEMBL1124673, “A multisubstrate adduct inhibitor of a purine biosynthetic enzyme with a picomolar dissociation constant” (J Med Chem, 1989).

Tests used:
[1] = biological target: T1, Trifunctional purine biosynthetic protein adenosine-3 (Mus musculus, UniProt Q64737); test: Compound was tested for inhibition constant against GAR TFase in mice
T1 sequence (Q64737 whole entry): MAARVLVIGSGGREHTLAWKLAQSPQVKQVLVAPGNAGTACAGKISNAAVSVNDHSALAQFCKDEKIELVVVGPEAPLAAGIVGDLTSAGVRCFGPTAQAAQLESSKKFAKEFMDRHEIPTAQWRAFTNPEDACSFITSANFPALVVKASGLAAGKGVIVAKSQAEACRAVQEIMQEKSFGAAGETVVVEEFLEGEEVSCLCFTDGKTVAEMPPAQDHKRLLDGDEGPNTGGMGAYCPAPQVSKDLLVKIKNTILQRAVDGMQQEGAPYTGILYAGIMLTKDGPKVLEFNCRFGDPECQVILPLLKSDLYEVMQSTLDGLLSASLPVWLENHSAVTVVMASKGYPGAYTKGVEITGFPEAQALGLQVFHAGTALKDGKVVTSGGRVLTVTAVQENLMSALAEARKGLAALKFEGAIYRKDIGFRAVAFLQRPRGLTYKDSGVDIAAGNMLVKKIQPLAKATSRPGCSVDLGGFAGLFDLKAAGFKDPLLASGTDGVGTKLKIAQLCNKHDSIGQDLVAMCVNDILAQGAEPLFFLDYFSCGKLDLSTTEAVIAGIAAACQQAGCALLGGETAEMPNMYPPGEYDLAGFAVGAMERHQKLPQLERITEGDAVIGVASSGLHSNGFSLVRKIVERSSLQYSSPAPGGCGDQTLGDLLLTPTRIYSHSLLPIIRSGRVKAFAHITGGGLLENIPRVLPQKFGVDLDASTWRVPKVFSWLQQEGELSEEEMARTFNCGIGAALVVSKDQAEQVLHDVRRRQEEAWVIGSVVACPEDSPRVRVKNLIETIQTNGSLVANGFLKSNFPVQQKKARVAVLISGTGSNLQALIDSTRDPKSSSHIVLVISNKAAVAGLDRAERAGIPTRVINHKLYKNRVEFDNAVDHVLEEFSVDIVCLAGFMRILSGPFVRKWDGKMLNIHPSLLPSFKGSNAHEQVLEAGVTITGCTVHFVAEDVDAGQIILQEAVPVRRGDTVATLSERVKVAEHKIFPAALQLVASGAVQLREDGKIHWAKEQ

[2] = biological target: T1, Trifunctional purine biosynthetic protein adenosine-3; test: Thermodynamic dissociation constant (KD) was measured upon binding to GAR TFase in mice

Ki [1]: > 100 nM
Kd [2]: 0.25 nM
SMILES: Nc1nc2ccc(CN(C(=O)CSCC(=O)NC3O[C@H](COP(=O)(O)O)[C@@H](O)[C@H]3O)c3ccc(C(=O)N[C@H](CCC(=O)O)C(=O)O)cc3)cc2c(=O)[nH]1 (some centres not stated)
